Data as given in patent publication US20240294522A1 (Lead Discovery Center GmbH, priority 2021, published 2024).

Legend:
[1] = molecular target: T1, GRK2 (Homo sapiens, UniProt P25098); assay: Lance Kinase Activity Assay, GRK2; conditions: biochemical Lance kinase activity assay; class symbols A-F; read-out: GRK2 LANCE Assay (IC-50)
T1 construct: purchased Thermo Scientific
T1 sequence (P25098 1-689): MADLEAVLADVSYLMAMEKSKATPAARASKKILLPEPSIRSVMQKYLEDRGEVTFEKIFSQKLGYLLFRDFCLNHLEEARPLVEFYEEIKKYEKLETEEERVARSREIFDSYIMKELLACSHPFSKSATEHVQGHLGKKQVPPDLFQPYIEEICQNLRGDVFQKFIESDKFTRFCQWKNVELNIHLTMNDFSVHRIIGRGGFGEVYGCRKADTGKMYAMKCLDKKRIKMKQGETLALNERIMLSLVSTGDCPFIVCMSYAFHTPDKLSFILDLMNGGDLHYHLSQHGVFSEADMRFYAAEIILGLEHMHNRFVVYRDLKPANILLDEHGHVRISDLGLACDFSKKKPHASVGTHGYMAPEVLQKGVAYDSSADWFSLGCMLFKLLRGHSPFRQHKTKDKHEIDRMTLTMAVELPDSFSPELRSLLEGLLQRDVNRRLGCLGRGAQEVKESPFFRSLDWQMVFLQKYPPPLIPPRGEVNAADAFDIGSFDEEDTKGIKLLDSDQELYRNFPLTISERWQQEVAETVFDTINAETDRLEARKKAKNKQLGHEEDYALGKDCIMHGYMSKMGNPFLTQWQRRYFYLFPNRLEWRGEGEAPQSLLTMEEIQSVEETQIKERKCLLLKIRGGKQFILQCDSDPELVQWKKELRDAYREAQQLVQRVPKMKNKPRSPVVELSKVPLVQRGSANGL
Protocol: (§1) This protocol describes how the Lance Kinase Activity Assay was performed to determine IC50 values of compounds of general formula (I) against GRK5 and GRK2.
(§2) The principle behind this enzymatic assay is based upon the phosphorylation of the Ulight-peptide substrate. It is detected by using a specific EU-labeled anti-phospho peptide antibody. The binding of the Eu labeled anti-phospho peptide antibody to the phosphorylated ULight labeled peptide gives rise to a FRET-signal. Binding of an inhibitor to the kinase prevents phosphorylation of the Ulight-substrate, resulting in a loss of FRET. In tables 2 and 3 the relevant information for these two LANCE assays is summarized.
(§3) For every sample, 2 μl of assay buffer (50 mM HEPES pH 7,5, 10 mM MgCL2, 1 mM EGTA 0,01% Tween 20, 1% DMSO, 2 mM DTT) were transferred into a suitable assay plate (e.g. Corning #3673). Compounds were added in a concentration range from 10 μM to 0.0025 μM using an acoustic dispenser (Echo520 from Labcycte, San Jose, USA) equipped with Echo Dose Response software. After that 6 μl of kinase-substrate mix was added. Reaction was started by addition of 2 μl ATP working solution and mixed using a Bioshake 5000 microplate shaker (Q Instruments, Jena, Germany).
(§4) After 1 h incubation at room temperature the reaction was stopped with 10 μl detection mix containing the Eu-labeled phosphospecific antibody and 10 mM EDTA. After a second incubation period of 1 h at room temperature the FRET signal was measured at 340 nm excitation, 665 nm and 615 nm emission (for the ULight-substrate and Eu-AB, respectively) with an Envision microplate reader (Perkin Elmer, Waltham, MA, USA) with 50 μs delay and 300 μs integration time. IC50 values were determined from the sigmoidal dose response curves with the software Quattro Workflow (Quattro GmbH, Munich, Germany).
(§5) Inhibition is indicated as IC50 [nM] (“−”=not measured). Compounds having an activity designated as “A” provided an IC50≤50 nM; compounds having an activity designated as “B” provided an 50 nM<IC50≤100 nM; compounds having an activity designated as “C” provided an 100 nM<IC50≤500 nM; compounds having an activity designated as “D” provided an 500 nM<IC50≤1000 nM; compounds having an activity designated as “E” provided an 1000 nM<IC50≤10000 nM; and compounds having an activity designated as “F” provided an IC50>10000 nM.

[2] = molecular target: T2, GRK5 (Homo sapiens, UniProt P34947); assay: Lance Kinase Activity Assay, GRK5; conditions: biochemical Lance kinase activity assay; class symbols A-F; read-out: GRK5 LANCE Assay (IC-50)
T2 construct: purchased Thermo Scientific
T2 sequence (P34947 whole entry): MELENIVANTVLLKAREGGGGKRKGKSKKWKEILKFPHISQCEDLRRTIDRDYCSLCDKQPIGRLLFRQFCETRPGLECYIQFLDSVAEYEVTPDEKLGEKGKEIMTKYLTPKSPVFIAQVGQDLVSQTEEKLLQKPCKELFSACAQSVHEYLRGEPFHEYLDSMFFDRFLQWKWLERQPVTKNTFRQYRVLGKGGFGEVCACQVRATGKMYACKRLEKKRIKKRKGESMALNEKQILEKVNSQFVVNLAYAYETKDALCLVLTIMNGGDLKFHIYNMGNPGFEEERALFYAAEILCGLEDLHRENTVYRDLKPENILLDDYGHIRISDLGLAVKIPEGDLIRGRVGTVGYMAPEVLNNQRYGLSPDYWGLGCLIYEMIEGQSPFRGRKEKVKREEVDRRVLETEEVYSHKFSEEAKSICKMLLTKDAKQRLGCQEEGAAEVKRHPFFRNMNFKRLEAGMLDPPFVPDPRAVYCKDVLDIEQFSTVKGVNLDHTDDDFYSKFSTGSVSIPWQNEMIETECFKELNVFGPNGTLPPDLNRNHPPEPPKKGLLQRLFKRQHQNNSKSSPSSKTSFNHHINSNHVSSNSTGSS
Protocol: as §1, §2, §3, §4, §5

| Structure (SMILES) | IC50 [1] | IC50 [2] |
| --- | --- | --- |
| N#C/C(=C\c1c[nH]c2ncccc12)C(=O)NCc1ccc(Cl)cc1 [Example 58, (E)-N-(4-chlorobenzyl)-2-cyano-3-(1H-pyrrolo[2,3-b]pyridin-3-yl)acrylamide] | 1 to 10 µM | 0.1 to 0.5 µM |
| N#C/C(=C\c1c[nH]c2ncccc12)C(=O)NCc1ccc(C(F)(F)F)cc1 [Example 59, (E)-2-cyano-3-(1H-pyrrolo[2,3-b]pyridin-3-yl)-N-(4-(trifluoromethyl)benzyl)acrylamide] | 1 to 10 µM | 1 to 10 µM |
| N#C/C(=C\c1c[nH]c2ncccc12)C(=O)NCc1cccc(Cl)c1 [Example 60, (E)-N-(3-chlorobenzyl)-2-cyano-3-(1H-pyrrolo[2,3-b]pyridin-3-yl)acrylamide] | 0.1 to 0.5 µM | 0.1 to 0.5 µM |
| N#C/C(=C\c1c[nH]c2ncccc12)C(=O)NCc1cccc(C(F)(F)F)c1 [Example 61, (E)-2-cyano-3-(1H-pyrrolo[2,3-b]pyridin-3-yl)-N-(3-(trifluoromethyl)benzyl)acrylamide] | 1 to 10 µM | 0.5 to 1 µM |
| N#C/C(=C\c1c[nH]c2ncccc12)C(=O)NCc1ccccc1Cl [Example 62, (E)-N-(2-chlorobenzyl)-2-cyano-3-(1H-pyrrolo[2,3-b]pyridin-3-yl)acrylamide] | 1 to 10 µM | 0.1 to 0.5 µM |
| CC(NC(=O)/C(C#N)=C/c1c[nH]c2ncccc12)c1ccc(F)cc1 (stereo not shown) [Example 63, (E)-2-cyano-N-(1-(4-fluorophenyl)ethyl)-3-(1H-pyrrolo[2,3-b]pyridin-3-yl)acrylamide] | 0.1 to 0.5 µM | 0.1 to 0.5 µM |
| C[C@@H](NC(=O)/C(C#N)=C/c1c[nH]c2ncccc12)c1ccccc1 [Example 64, (R,E)-2-cyano-N-(1-phenylethyl)-3-(1H-pyrrolo[2,3-b]pyridin-3-yl)acrylamide] | 0.1 to 0.5 µM | 0.05 to 0.1 µM |
| N#C/C(=C\c1c[nH]c2ncccc12)C(=O)NCc1ccc(F)cc1F [Example 65, (E)-2-cyano-N-(2,4-difluorobenzyl)-3-(1H-pyrrolo[2,3-b]pyridin-3-yl)acrylamide] | 1 to 10 µM | 1 to 10 µM |
| N#C/C(=C\c1c[nH]c2ncccc12)C(=O)NCc1ccc(F)c(F)c1 [Example 66, (E)-2-cyano-N-(3,4-difluorobenzyl)-3-(1H-pyrrolo[2,3-b]pyridin-3-yl)acrylamide] | 0.1 to 0.5 µM | 0.1 to 0.5 µM |
| N#C/C(=C\c1c[nH]c2ncccc12)C(=O)NCc1cc(F)cc(F)c1 [Example 67, (E)-2-cyano-N-(3,5-difluorobenzyl)-3-(1H-pyrrolo[2,3-b]pyridin-3-yl)acrylamide] | 0.5 to 1 µM | 0.5 to 1 µM |
| CC[C@@H](NC(=O)/C(C#N)=C/c1c[nH]c2ncccc12)c1ccccc1 [Example 68, (R,E)-2-cyano-N-(1-phenylpropyl)-3-(1H-pyrrolo[2,3-b]pyridin-3-yl)acrylamide] | 0.1 to 0.5 µM | 0.1 to 0.5 µM |
| C[C@@H](NC(=O)/C(C#N)=C/c1c[nH]c2ncccc12)c1ccc(F)cc1 [Example 69, (R,E)-2-cyano-N-(1-(4-fluorophenyl)ethyl)-3-(1H-pyrrolo[2,3-b]pyridin-3-yl)acrylamide] | 0.05 to 0.1 µM | ≤ 0.05 µM |
| C[C@@H](NC(=O)/C(C#N)=C/c1c[nH]c2ncccc12)c1ccc(Cl)cc1 [Example 70, (R,E)-N-(1-(4-chlorophenyl)ethyl)-2-cyano-3-(1H-pyrrolo[2,3-b]pyridin-3-yl)acrylamide] | 0.5 to 1 µM | 0.1 to 0.5 µM |
| N#C/C(=C\c1c[nH]c2ncc(C(F)(F)F)cc12)C(=O)NCc1ccccc1 [Example 71, (E)-N-benzyl-2-cyano-3-(5-(trifluoromethyl)-1H-pyrrolo[2,3-b]pyridin-3-yl)acrylamide] | > 10 µM | 1 to 10 µM |
| N#C/C(=C\c1c[nH]c2ncc(Cl)cc12)C(=O)NCc1ccc(F)cc1 [Example 72, (E)-3-(5-chloro-1H-pyrrolo[2,3-b]pyridin-3-yl)-2-cyano-N-(4-fluorobenzyl)acrylamide] | 1 to 10 µM | 1 to 10 µM |
| N#C/C(=C\c1c[nH]c2ncc(Cl)cc12)C(=O)NCc1ccccc1 [Example 73, (E)-N-benzyl-3-(5-chloro-1H-pyrrolo[2,3-b]pyridin-3-yl)-2-cyanoacrylamide] | 1 to 10 µM | 1 to 10 µM |
| N#C/C(=C\c1c[nH]c2ncc(Cl)cc12)C(=O)NCc1ccccc1Cl [Example 74, (E)-3-(5-chloro-1H-pyrrolo[2,3-b]pyridin-3-yl)-N-(2-chlorobenzyl)-2-cyanoacrylamide] | > 10 µM | 1 to 10 µM |
| N#C/C(=C\c1c[nH]c2ncc(Cl)cc12)C(=O)NCc1cc(F)cc(F)c1 [Example 75, (E)-3-(5-chloro-1H-pyrrolo[2,3-b]pyridin-3-yl)-2-cyano-N-(3,5-difluorobenzyl)acrylamide] | > 10 µM | 1 to 10 µM |
| C[C@@H](NC(=O)/C(C#N)=C/c1c[nH]c2ncc(Cl)cc12)c1ccc(F)cc1 [Example 76, (R,E)-3-(5-chloro-1H-pyrrolo[2,3-b]pyridin-3-yl)-2-cyano-N-(1-(4-fluorophenyl)ethyl)acrylamide] | 0.5 to 1 µM | 0.1 to 0.5 µM |
| CC[C@@H](NC(=O)/C(C#N)=C/c1c[nH]c2ncc(Cl)cc12)c1ccccc1 [Example 77, (R,E)-3-(5-chloro-1H-pyrrolo[2,3-b]pyridin-3-yl)-2-cyano-N-(1-phenylpropyl)acrylamide] | 1 to 10 µM | 0.1 to 0.5 µM |
| C[C@@H](NC(=O)/C(C#N)=C/c1c[nH]c2nccc(Cl)c12)c1ccc(F)cc1 [Example 78, (R,E)-3-(4-chloro-1H-pyrrolo[2,3-b]pyridin-3-yl)-2-cyano-N-(1-(4-fluorophenyl)ethyl)acrylamide] | 0.5 to 1 µM | 0.1 to 0.5 µM |
| C[C@@H](NC(=O)/C(C#N)=C/c1c[nH]c2ncc(Br)cc12)c1ccc(F)cc1 [Example 79, (R,E)-3-(5-bromo-1H-pyrrolo[2,3-b]pyridin-3-yl)-2-cyano-N-(1-(4-fluorophenyl)ethyl)acrylamide] | 1 to 10 µM | 0.1 to 0.5 µM |
| COc1ccc([C@@H](C)NC(=O)/C(C#N)=C/c2c[nH]c3ncc(Br)cc23)cc1OC [Example 80, (R,E)-3-(5-bromo-1H-pyrrolo[2,3-b]pyridin-3-yl)-2-cyano-N-(1-(3,4-dimethoxyphenyl)ethyl)acrylamide] | > 10 µM | 0.05 to 0.1 µM |
| COc1ccc([C@@H](C)NC(=O)/C(C#N)=C/c2c[nH]c3ncc(O)cc23)cc1OC [Example 81, (R,E)-2-cyano-N-(1-(3,4-dimethoxyphenyl)ethyl)-3-(5-hydroxy-1H-pyrrolo[2,3-b]pyridin-3-yl)acrylamide] | 1 to 10 µM | ≤ 0.05 µM |
| COc1ccc([C@@H](C)NC(=O)/C(C#N)=C/c2c[nH]c3ncc(C(=O)N4CCOCC4)cc23)cc1OC [Example 82] | > 10 µM | 0.1 to 0.5 µM |
| COc1ccc([C@@H](C)NC(=O)/C(C#N)=C/c2c[nH]c3ncc(C(=O)N4CCN(C)CC4)cc23)cc1OC [Example 83, (R,E)-2-cyano-N-(1-(3,4-dimethoxyphenyl)ethyl)-3-(5-(4-methylpiperazine-1-carbonyl)-1H-pyrrolo[2,3-b]pyridin-3-yl)acrylamide] | > 10 µM | 0.1 to 0.5 µM |
